Source: US9624268B2, “Oral peptide inhibitors of interleukin-23 receptor and their use to treat inflammatory bowel diseases” (Protagonist Therapeutics, Inc., priority 2014, dated 2017)

Test system: Sprague Dawley rats with DSS-induced colitis
Assay: Rat colitis model: 9 days of 3% DSS-containing drinking water
Assay type: in vivo
Details: 100 mg/kg PO, QD
Protocol: Rat Colitis Model: 9 Days of 3% DSS-Containing Drinking Water
In this model, colitis was induced in SD rats by 9 days of ad lib exposure to drinking water containing 3% DSS. The disease activity index (DAI) score and ratio of colon weight:colon length were compared between three study groups (n=6 rats/group): vehicle, 3% DSS, and 3% DSS with positive control (sulfasalazine administered at 100 mg/kg PO, QD).
Acute colitis was induced by feeding female Sprague Dawley rats with 3% (wt/vol) DSS dissolved in drinking water. […] To quantify colitis with clinical activity, disease activity index (DAI) was determined daily for each animal as an average of three parameters: body weight change (scale 0-3), stool consistency (scale 0-3) and hemoccult blood (scale 0-3), as shown in Table 15. At necropsy, the entire colon was removed from the cecum to the rectum. The colon was measured for length, flushed with PBS to remove feces, weighed, and opened longitudinally to determine macroscopic score.

O=C(O)c1cc(/N=N/c2ccc(S(=O)(=O)Nc3ccccn3)cc2)ccc1O [sulfasalazine]
terminal ratio of colon weight:colon length, difference with and without treatment: significant
disease activity index (DAI) score compared to DSS alone (from Day 5): attenuated the disease score
